# Experimental data reported in US6911542B2, “Pyrazino[1′,2′:1,6]pyrido[3,4b]indole derivatives” (Lilly Icos LLC., priority 2000, dated 2005).
# Biological target: T1, human recombinant PDE5 (Homo sapiens, UniProt O76074)
# T1 construct: host or cells: Saccharomyces cerevisiae, protease-deficient strain BJ2-54 (ATCC 74465)
# Test: cGMP-PDE one-step inhibition assay, human recombinant PDE5
# Assay type: biochemical
# Settings: 0.15 μM 8-[H3]-cGMP, 30 min incubation
# Method: The compounds of structural formula (I) were tested for an ability to inhibit PDE5. The ability of a compound to inhibit PDE5 activity is related to the IC50 value for the compound, i.e., the concentration of inhibitor required for 50% inhibition of enzyme activity. The IC50 value for compounds of structural formula (I) were determined using recombinant human PDE5.
# The production of recombinant human PDEs and the IC50 determinations can be accomplished by well-known methods in the art. Exemplary methods are described as follows:
# Recombinant production of human PDE1B, PDE2, PDE4A, PDE4B, PDE4C, PDE4D, PDE5, and PDE7 was carried out similarly to that described in Example 7 of U.S. Pat. No. 5,702,936, incorporated herein by reference, except that the yeast transformation vector employed, which is derived from the basic ADH2 plasmid described in Price et al., Methods in Enzymology, 185, pp. 308-318 (1990), incorporated yeast ADH2 promoter and terminator sequences and the Saccharomyces cerevisiae host was the protease-deficient strain BJ2-54 deposited on Aug. 31, 1998 with the American Type Culture Collection, Manassas, Va., under accession number ATCC 74465. Transformed host cells were grown in 2×SC-leu medium, pH 6.2, with trace metals, and vitamins. After 24 hours, YEP medium-containing glycerol was added to a final concentration of 2×YET/3% glycerol. Approximately 24 hr later, cells were harvested, washed, and stored at −70° C. […]
# Cell pellets (29 g) were thawed on ice with an equal volume of Lysis Buffer (25 mM Tris HCl, pH 8, 5 mM MgCl2, 0.25 mM DTT, 1 mM benzamidine, and 10 μM ZnSO4). Cells were lysed in a Microfluidizer® (Microfluidics Corp.) using nitrogen at 20,000 psi. The lysate was centrifuged and filtered through 0.45 μm disposable filters. The filtrate was applied to a 150 mL column of Q SEPHAROSE® Fast-Flow (Pharmacia). The column was washed with 1.5 volumes of Buffer A (20 mM Bis-Tris Propane, pH 6.8, 1 mM MgCl2, 0.25 mM DTT, 10 μM ZnSO4) and eluted with a step gradient of 125 mM NaCl in Buffer A followed by a linear gradient of 125-1000 mM NaCl in Buffer A. Active fractions from the linear gradient were applied to a 180 mL hydroxyapatite column in Buffer B (20 mM Bis-Tris Propane (pH 6.8), 1 mM MgCl2, 0.25 mM DTT, 10 μM ZnSO4, and 250 mM KCl). After loading, the column was washed with 2 volumes of Buffer B and eluted with a linear gradient of 0-125 mM potassium phosphate in Buffer B. Active fractions were pooled, precipitated with 60% ammonium sulfate, and resuspended in Buffer C (20 mM Bis-Tris Propane, pH 6.8, 125 mM NaCl, 0.5 mM DTT, and 10 μM ZnSO4). The pool was applied to a 140 mL column of […]® S-300 HR and eluted with Buffer C. Active fractions were diluted to 50% glycerol and stored at −20° C.
# cGMP-PDE activity of compounds of the present invention was measured using a one-step assay adapted from Wells et al., Biochim. Biophys. Acta, 384, 430 (1975). The reaction medium contained 50 mM Tris-HCl, pH 7.5, 5 mM magnesium acetate, 250 μg/ml 5′-Nucleotidase, 1 mM EGTA, and 0.15 μM 8-[H^3]-cGMP. Unless otherwise indicated, the enzyme used was a human recombinant PDE5 (ICOS Corp., Bothell, Wash.).
# Compounds of the invention were dissolved in DMSO finally present at 2% in the assay.
row,IC50,Structure (SMILES)
1,6.2 nM,NS(=O)(=O)c1ccc(CCN2CC(=O)N3[C@H](c4ccc5c(c4)OCO5)c4[nH]c5ccccc5c4C[C@@H]3C2=O)cc1 [Example 67]
2,4.3 nM,O=C(O)c1ccc(CN2CC(=O)N3[C@H](c4ccc5c(c4)OCO5)c4[nH]c5ccccc5c4C[C@@H]3C2=O)cc1 [Example 47]
3,10 nM,O=C(CCN1CC(=O)N2[C@H](c3ccc4c(c3)OCO4)c3[nH]c4ccccc4c3C[C@@H]2C1=O)NC1CCCCC1 [Example 33]
4,10 nM,O=C1[C@H]2Cc3c([nH]c4ccccc34)[C@@H](c3ccc4c(c3)OCO4)N2C(=O)CN1CCOCCO [Example 40]
5,20 nM,NS(=O)(=O)c1ccc(CN2CC(=O)N3[C@H](c4ccc5c(c4)OCO5)c4[nH]c5ccccc5c4C[C@@H]3C2=O)cc1 [Example 58]
6,10 nM,O=C1[C@H]2Cc3c([nH]c4ccccc34)[C@@H](c3ccc4c(c3)OCO4)N2C(=O)CN1CCCn1ccnc1 [Example 32]
7,70 nM,CC(C)(C)OC(=O)CN1CC(=O)N2[C@H](c3ccc4c(c3)OCO4)c3[nH]c4ccccc4c3C[C@@H]2C1=O [Example 86]
8,40 nM,Nc1ccc(CCN2CC(=O)N3[C@H](c4ccc5c(c4)OCO5)c4[nH]c5ccccc5c4C[C@@H]3C2=O)cc1 [Example 66]
9,20 nM,COC(=O)CN1CC(=O)N2[C@H](c3ccc4c(c3)OCO4)c3[nH]c4ccccc4c3C[C@@H]2C1=O [Example 87]
10,30 nM,CCOCCCN1CC(=O)N2[C@H](c3ccc4c(c3)OCO4)c3[nH]c4ccccc4c3C[C@@H]2C1=O [Example 39]
11,40 nM,O=C1[C@H]2Cc3c([nH]c4ccccc34)[C@@H](c3ccc4c(c3)OCO4)N2C(=O)CN1CCCN1CCOCC1 [Example 18]
12,10 nM,COCCCN1CC(=O)N2[C@H](c3ccc4c(c3)OCO4)c3[nH]c4ccccc4c3C[C@@H]2C1=O [Example 25]
13,2.3 nM,O=C(O)CCN1CC(=O)N2[C@H](c3ccc4c(c3)OCO4)c3[nH]c4ccccc4c3C[C@@H]2C1=O [Example 72]
14,3.9 nM,O=C(CN1CC(=O)N2[C@H](c3ccc4c(c3)OCO4)c3[nH]c4ccccc4c3C[C@@H]2C1=O)Nc1ccccc1 [Example 28]
15,120 nM,CN1CCN(NC(=O)CN2CC(=O)N3[C@H](c4ccc5c(c4)OCO5)c4[nH]c5ccccc5c4C[C@@H]3C2=O)CC1 [Example 84]
16,5.1 nM,O=C1[C@H]2Cc3c([nH]c4ccccc34)[C@@H](c3ccc4c(c3)OCO4)N2C(=O)CN1Cc1ccc(NS(=O)(=O)C(F)(F)F)cc1 [Example 57]
17,290 nM,CN(C)CCOc1ccc(CN2CC(=O)N3[C@H](c4ccc5c(c4)OCO5)c4[nH]c5ccccc5c4C[C@@H]3C2=O)cc1 [Example 81]
18,140 nM,O=C(CN1CC(=O)N2[C@H](c3ccc4c(c3)OCO4)c3[nH]c4ccccc4c3C[C@@H]2C1=O)N1CCN(c2ccccc2)CC1 [Example 42]
19,6.3 nM,O=C1[C@H]2Cc3c([nH]c4ccccc34)[C@@H](c3ccc4c(c3)OCO4)N2C(=O)CN1CCCn1cccn1 [Example 79]
20,20 nM,Cn1cnc2cc(CN3CC(=O)N4[C@H](c5ccc6c(c5)OCO6)c5[nH]c6ccccc6c5C[C@@H]4C3=O)ccc21 [Example 85]
21,2.5 nM,"CON1CC(=O)N2[C@H](c3ccc4c(c3)OCO4)c3[nH]c4ccccc4c3C[C@@H]2C1=O [Example 3, (6R,12aR)-6-Benzo[1,3]dioxol-5-yl-2-methoxy-2,3,6,7,12,12a-hexahydropyrazino[1′,2′:1,6]-pyrido[3,4-b]indole-1,4-dione]"
22,50 nM,O=C(O)CCN1CC(=O)N2[C@H](c3ccc4c(c3)OCO4)c3[nH]c4ccccc4c3C[C@@H]2C1=O [Example 36]
23,40 nM,CNc1cc(CN2CC(=O)N3[C@H](c4ccc5c(c4)OCO5)c4[nH]c5ccccc5c4C[C@@H]3C2=O)cc([N+](=O)[O-])c1 [Example 83]

row,IC50,Structure (SMILES)
1,40 nM,O=C(CN1CC(=O)N2[C@H](c3ccc4c(c3)OCO4)c3[nH]c4ccccc4c3C[C@@H]2C1=O)OCc1ccccc1 [Example 68]
2,30 nM,O=C1C2Cc3c([nH]c4ccccc34)C(c3ccc4c(c3)OCO4)N2C(=O)CN1CCn1cncn1 (stereo not shown) [Example 82]
3,50 nM,CN1CCN(CCN2CC(=O)N3[C@H](c4ccc5c(c4)OCO5)c4[nH]c5ccccc5c4C[C@@H]3C2=O)CC1 [Example 46]
4,10 nM,N#CCN1CC(=O)N2[C@H](c3ccc4c(c3)OCO4)c3[nH]c4ccccc4c3C[C@@H]2C1=O [Example 60]
5,20 nM,O=C1[C@H]2Cc3c([nH]c4ccccc34)[C@@H](c3ccc4c(c3)OCO4)N2C(=O)CN1CCc1cnc[nH]1 [Example 64]
6,1.4 nM,"NS(=O)(=O)c1ccc(CCN2CC(=O)N3[C@H](c4ccc5c(c4)OCO5)c4[nH]c5ccccc5c4C[C@@H]3C2=O)cc1 [Example 1, (6R-trans)-6-(1,3-Benzodioxol-5-yl)-2,3,6,7,12,12a-hexahydro-2-[2-(4-phenylsulfamoyl)-ethyl]pyrazino[1′,2′:1,6]pyrido[3,4-b]indole-1,4-dione]"
7,10 nM,CC(=O)NCCN1CC(=O)N2[C@H](c3ccc4c(c3)OCO4)c3[nH]c4ccccc4c3C[C@@H]2C1=O [Example 26]
8,5.4 nM,O=C1CCCN1CCCN1CC(=O)N2[C@H](c3ccc4c(c3)OCO4)c3[nH]c4ccccc4c3C[C@@H]2C1=O [Example 27]
9,70 nM,N#Cc1ccc(CN2CC(=O)N3[C@H](c4ccc5c(c4)OCO5)c4[nH]c5ccccc5c4C[C@@H]3C2=O)cc1 [Example 59]
10,4.3 nM,O=C(CCCN1CC(=O)N2[C@H](c3ccc4c(c3)OCO4)c3[nH]c4ccccc4c3C[C@@H]2C1=O)NC1CCCCC1 [Example 35]
11,10 nM,CCCCN(C)C(=O)CCCN1CC(=O)N2[C@H](c3ccc4c(c3)OCO4)c3[nH]c4ccccc4c3C[C@@H]2C1=O [Example 34]
12,3.9 nM,O=C(CN1CC(=O)N2[C@H](c3ccc4c(c3)OCO4)c3[nH]c4ccccc4c3C[C@@H]2C1=O)Nc1ccncc1 [Example 38]
13,20 nM,O=C(CN1CC(=O)N2[C@H](c3ccc4c(c3)OCO4)c3[nH]c4ccccc4c3C[C@@H]2C1=O)NCc1ccccc1 [Example 30]
14,1.8 nM,"NN1CC(=O)N2[C@H](c3ccc4c(c3)OCO4)c3[nH]c4ccccc4c3C[C@@H]2C1=O [Example 4, (6R,12aR)-2-Amino-6-benzo[1,3]dioxo-5-yl-2,3,6,7,12,12a-hexahydropyrazino[1′, 2′:1,6]-pyrido[3,4-b]indole-1,4-dione]"
15,20 nM,O=C(O)CN1CC(=O)N2[C@H](c3ccc4c(c3)OCO4)c3[nH]c4ccccc4c3C[C@@H]2C1=O [Example 69]
16,20 nM,COC(=O)c1ccc(CN2CC(=O)N3[C@H](c4ccc5c(c4)OCO5)c4[nH]c5ccccc5c4C[C@@H]3C2=O)cc1 [Example 62]
17,100 nM,CN(C(=O)CN1CC(=O)N2[C@H](c3ccc4c(c3)OCO4)c3[nH]c4ccccc4c3C[C@@H]2C1=O)c1ccccc1 [Example 43]
18,5.9 nM,COCCN1CC(=O)N2[C@H](c3ccc4c(c3)OCO4)c3[nH]c4ccccc4c3C[C@@H]2C1=O [Example 29]
19,1.7 nM,O=C1[C@H]2Cc3c([nH]c4ccccc34)[C@@H](c3ccc4c(c3)OCO4)N2C(=O)CN1Cc1cccc(NS(=O)(=O)C(F)(F)F)c1 [Example 77]
20,130 nM,CC1C(=O)N2[C@H](c3ccc4c(c3)OCO4)c3[nH]c4ccccc4c3C[C@@H]2C(=O)N1CCN(C)C (stereo partly shown) [Example 8]
21,9.6 nM,CCOC(=O)CCN1CC(=O)N2[C@H](c3ccc4c(c3)OCO4)c3[nH]c4ccccc4c3C[C@@H]2C1=O [Example 24]
22,10 nM,CC(C)(C)OC(=O)CCN1CC(=O)N2[C@H](c3ccc4c(c3)OCO4)c3[nH]c4ccccc4c3C[C@@H]2C1=O [Example 71]

row,Structure (SMILES),IC50
1,O=C(CN1CC(=O)N2[C@H](c3ccc4c(c3)OCO4)c3[nH]c4ccccc4c3C[C@@H]2C1=O)N1CCCCC1 [Example 31],20 nM
